Assay results taken from patent US20250387388A1, “COMPOUND AS TRK INHIBITOR AND/OR RET INHIBITOR AND USE THEREOF” (Medinno Pharmaceutical Technology (Zhuhai) Co., Ltd., priority 2022, published 2025).

How the values were obtained:
acne model in rabbits = assay: Acne model in rabbits (coal tar + Propionibacterium acnes); type: in vivo, New Zealand white rabbits; details: for Rabbit ear weight: twice per day, topical, 2 weeks; for Serum DHT level / Serum IL-1α level: vs. model (vehicle) group; for Effect on inflammatory factors and acne (conclusion): rabbit, in vivo
Experimental: Modeling: Rabbits were acclimated for 7 days. On the right inner ear canal exit of the rabbits, a 2 cm×2 cm area was treated with 2% coal tar solution once a day, 0.5-1 mL each time, for 26 consecutive days. […] On the 8th day, Propionibacterium acnes was injected intradermally at 3-4 sites on the rabbit ears, 50 μl per rabbit, injected every other day for a total of 5 times. Treatment was started randomly on the 9th day after the last injection.
Rabbits were treated according to their groups. The blank group received no treatment. […] The model group received an equal amount of vehicle treatment, with the same application method and duration as the test drug groups.
Twenty-four hours after the last administration, a 2.8 cm punch was used to prepare ear samples at the application site, and their weight was measured. The ears from the modeling site were fixed with 4% paraformaldehyde, and consecutive sections (3 slices) were taken from the same location for HE staining and histopathological analysis. At the same time, the area of 3 hair follicles and the diameter of 3 sebaceous glands were measured to calculate the average values. Blood was drawn from the heart and centrifuged to obtain serum, and the levels of interleukin-1α (IL-1α), interleukin-6 (IL-6), and dihydrotestosterone (DHT) in serum were determined according to the ELISA kit instructions.
Tissue samples from animal ears were excised, fixed in 4% paraformaldehyde, dehydrated, embedded in paraffin, and sectioned and HE stained for observation of histopathological morphology changes. The tissue samples were fixed in 4% paraformaldehyde at normal temperature and the taken ears tissue was rinsed with running water for several hours, dehydrated through a series of ethanol solutions (70%, 80%, 90%), and then treated with a mixture of pure alcohol and xylene for 15 minutes, followed by xylene I for 15 minutes and xylene II for 15 minutes (until transparent). The tissue was then placed in a mixture of xylene and paraffin at a volume ratio of 1:1 for 15 minutes, followed by immersion with paraffin I and paraffin II each for 50-60 minutes. The tissue was embedded in paraffin and sectioned, and the sections were baked, dewaxed and hydrated in distilled water. The resulting sections were then stained in hematoxylin solution for 3 minutes, differentiated in a hydrochloric acid alcohol solution for 15 seconds, slightly washed, blued in a return blue solution for 15 seconds, rinsed with running water, stained with eosin for 3 minutes, rinsed with running water, dehydrated, cleared, and mounted for microscopic examination.
A double-antibody one-step sandwich Enzyme-linked Immunosorbent Assay (ELISA) ket was used. A capture antibody for the mouse target indicators was pre-coated onto microplate wells, to which samples, standards, and HRP-labeled detection antibodies were added sequentially, followed by incubation and thorough washing. TMB substrate was added for color development, which turned into blue in the presence of peroxidase and then into yellow after acidification. The depth of color was positively correlated with the concentration of the target in the samples. The absorbance (OD450 value) was measured at a wavelength of 450 nm using the microplate reader, and the sample concentration was calculated.

[1] = test system: ovalbumin-induced asthma model in mice; assay: Ovalbumin-induced asthma model in mice; type: in vivo, Balb/c mice; details: nasal administration BID 5 days: MDI-1228 3 mg/kg, MDI-1288 3 mg/kg, MDI-1233 1, 3, 10 mg/kg; for Bronchoalveolar lavage fluid IL-5 expression level / Inflammatory cell count in bronchoalveolar lavage fluid / Lung tissue inflammatory cell infiltration (HE pathology) / Serum IgE expression level: vs. vehicle (model) group, dexamethasone 1 mg/kg gavage QD
Experimental: After 7 days of acclimatization, animals were randomly grouped based on their body weight. The experiment was divided into 8 groups, with 8 mice in each group, as detailed in the table below.
• Preparation of Immunogen: Weigh an appropriate amount of OVA, to which an appropriate amount of PBS was added, to achieve a final concentration of 0.1 mg/ml. Then, an equal volume of aluminum adjuvant was added, and the resulting mixture was mixed well, and stored at 4° C., which was prepared before use. • Preparation of Sensitizer (5% OVA): Weigh an appropriate amount of OVA, to which an appropriate amount of PBS was added, to achieve a final concentration of 5%. The resulting mixture was mixed well, and store it at 4° C. for later use, which was prepared before use. • Preparation of Vehicle: Add 200 μl of Tween 80 to 100 ml of saline, and mix it well. […] Mix it well, and store it at 4° C. for later use. […] Mix it well, and store it at 4° C. for later use. […] Mix it well, and store it at 4° C. for later use. The solution was prepared once every three days.
• Immunization: On days 0, 7, 14, and 21, 200 μl of PBS was injected intraperitoneally for the first group, and 200 μl of (10 μg) OVA/aluminum adjuvant emulsion was injected intraperitoneally for groups 2-8. • Sensitization: From days 28 to 32, the first group of animals was exposed to nebulized PBS in a nebulization box for 20 minutes, and the groups 2-8 were exposed to nebulized 5% OVA in a nebulization box for 20 minutes. And then, they were removed. The sensitization was conducted at 12:30 PM daily. • Administration: The medicine was administrated twice a day at 9 AM and 5 PM via nasal drops. Dexamethasone (Dex) was administered by gavage once a day at 9 AM.
Serum IgE: Blood was collected from the orbits of animals after carbon dioxide euthanasia, and plasma was separated and stored at −40 degrees for plasma IgE detection.
Bronchoalveolar Lavage Fluid (BALF) Cell Count: An appropriate amount of foetal bovine serum was weighted and dissolved in PBS to a final concentration of 1%. After orbital blood collection, the trachea was exposed, and a 1 ml syringe needle was replaced with a mouse gavage needle. 0.8 ml of the lavage fluid was aspirated from the syringe and the lungs were lavaged three times. The lavage fluids were collected, and centrifuged at 1000 rpm for 10 minutes, and the supernatant was collected and stored at −40 degrees Celsius. Cells were resuspended with 1 ml of PBS and counted. 100 ul of centrifuged smear was taken and stained with Diff quick and the number of eosinophils, basophils, lymphocytes and macrophages were recorded.
Bronchoalveolar Lavage Fluid IL-5: Bronchoalveolar lavage fluid was collected to detect IL-5.
Pathological scoring criteria were: • A) 0 points: No lymphocyte infiltration; • B) 1 point: Trace lymphocyte infiltration; • C) 2 points: Mild lymphocyte infiltration; • D) 3 points: Moderate lymphocyte infiltration; • E) 4 points: Severe lymphocyte infiltration; • After scoring, the results were calculated and analyzed.

RET = RET (Homo sapiens (Human), UniProt P07949); assay: Inhibitory activity on RET kinase (HTRF KinEASE-TK); type: biochemical; details: ATP 16 μM
Sequence of RET (P07949 29-1114): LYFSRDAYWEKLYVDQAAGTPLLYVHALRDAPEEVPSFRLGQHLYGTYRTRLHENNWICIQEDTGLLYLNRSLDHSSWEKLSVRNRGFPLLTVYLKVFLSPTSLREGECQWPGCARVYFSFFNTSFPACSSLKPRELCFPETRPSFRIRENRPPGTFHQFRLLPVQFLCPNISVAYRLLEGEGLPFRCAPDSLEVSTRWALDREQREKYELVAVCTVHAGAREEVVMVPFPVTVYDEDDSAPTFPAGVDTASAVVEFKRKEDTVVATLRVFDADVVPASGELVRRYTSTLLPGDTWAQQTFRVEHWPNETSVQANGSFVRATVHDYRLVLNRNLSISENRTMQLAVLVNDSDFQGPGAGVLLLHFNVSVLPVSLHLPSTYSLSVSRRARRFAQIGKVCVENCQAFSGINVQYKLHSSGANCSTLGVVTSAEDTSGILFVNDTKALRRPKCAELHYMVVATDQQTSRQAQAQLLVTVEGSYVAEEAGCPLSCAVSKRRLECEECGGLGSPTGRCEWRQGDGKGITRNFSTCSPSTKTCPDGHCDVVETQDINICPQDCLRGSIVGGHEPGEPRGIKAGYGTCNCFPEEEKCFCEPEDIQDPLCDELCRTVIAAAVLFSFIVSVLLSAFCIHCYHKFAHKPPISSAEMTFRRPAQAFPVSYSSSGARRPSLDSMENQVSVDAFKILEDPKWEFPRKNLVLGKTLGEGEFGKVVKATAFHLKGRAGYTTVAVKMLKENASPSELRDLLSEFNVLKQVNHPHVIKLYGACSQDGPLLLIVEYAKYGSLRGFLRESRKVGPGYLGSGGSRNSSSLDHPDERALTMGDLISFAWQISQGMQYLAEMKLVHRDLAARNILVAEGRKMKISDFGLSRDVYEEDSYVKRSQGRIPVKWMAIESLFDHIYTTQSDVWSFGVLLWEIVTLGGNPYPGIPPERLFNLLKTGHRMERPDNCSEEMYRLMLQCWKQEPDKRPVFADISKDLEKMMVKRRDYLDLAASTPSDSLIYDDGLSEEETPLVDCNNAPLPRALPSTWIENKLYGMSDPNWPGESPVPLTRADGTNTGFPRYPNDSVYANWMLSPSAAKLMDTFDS
Description: 3) Formulate 2.5× kinase with 1× kinase reaction buffer.

SMILES | Rabbit ear weight (acne model in rabbits; 3 mg/kg each time) | Serum DHT level (acne model in rabbits; 3 mg/kg) | Serum IL-1α level (acne model in rabbits; 3 mg/kg) | Effect on inflammatory factors and acne (conclusion) (acne model in rabbits) | Therapeutic effect on the asthma animal model (lung tissue pathological scoring) [1] | Bronchoalveolar lavage fluid IL-5 expression level [1] | Inflammatory cell count in bronchoalveolar lavage fluid [1] | Lung tissue inflammatory cell infiltration (HE pathology) [1] | Serum IgE expression level [1] | IC50 (RET) [nM] | Serum IL-1α, IL-6 and DHT levels (acne model in rabbits; 1 mg/kg low-dose) | Hair follicle area (acne model in rabbits; 3 mg/kg) | Ear tissue HE staining (acne model in rabbits; 3 mg/kg medium-dose) | Hair follicle area (acne model in rabbits; 9 mg/kg) | Rabbit ear weight (acne model in rabbits; 9 mg/kg each time) | Serum DHT level (acne model in rabbits; 9 mg/kg) | Serum IL-1α level (acne model in rabbits; 9 mg/kg)
CCc1cc(O)c(F)cc1-c1ccc2c(-c3nc4c([nH]3)CN(C(=O)NCC(O)CCl)C4)n[nH]c2c1 (stereo not drawn) [MDI-1288] | reduced ear weight | significantly reduced | significantly reduced | reducing the expression of inflammatory factors and improving acne | certain therapeutic effect | significantly reduced the expression of IL-5 | significantly reduced the Inflammatory Cell Count | significantly reduced the lung tissue inflammatory cell infiltration | significantly reduced the expression of IgE | 3.43 |  |  |  |  |  |  | 
CCc1cc(O)c(F)cc1-c1ccc2c(-c3nc4c([nH]3)CN(C(=O)N3CC[C@H](O)C3)C4)n[nH]c2c1 [MDI-1228, (S)-(2-(6-(2-ethyl-5-fluoro-4-hydroxyphenyl)-1H-indazol-3-yl)-4,6-dihydropyrrolo[3,4-d]imidazol-5-(1H)-yl)(3-hydroxylpyrrolidin-1-yl)ketone] | reduced ear weight | significantly reduced | significantly reduced | reducing the expression of inflammatory factors and improving acne | certain therapeutic effect | significantly reduced the expression of IL-5 | significantly reduced the Inflammatory Cell Count | significantly reduced the lung tissue inflammatory cell infiltration | significantly reduced the expression of IgE | 0.62 | a trend of reduction in all three indicators | significantly reduced the enlargement of hair follicles | the best treatment effect | significantly reduced the enlargement of hair follicles | reduced ear weight | significantly reduced | significantly reduced
